Test results from ChEMBL document CHEMBL5728306, “Spirocyclic compounds” (2021).

Target: Mitogen-activated protein kinase 1 (Homo sapiens, UniProt P28482)
Assay: ERK1 & ERK2 were then activated by the addition of F1-Substrate, ATP and metal solution and incubated for 1 h at rt. After 1 h, the reaction was terminated by the addition of […] of Termination Buffer (QuickScout Screening Assist MSA; Carna Biosciences) to the well.

Chain of Mitogen-activated protein kinase 1 (P28482 whole entry): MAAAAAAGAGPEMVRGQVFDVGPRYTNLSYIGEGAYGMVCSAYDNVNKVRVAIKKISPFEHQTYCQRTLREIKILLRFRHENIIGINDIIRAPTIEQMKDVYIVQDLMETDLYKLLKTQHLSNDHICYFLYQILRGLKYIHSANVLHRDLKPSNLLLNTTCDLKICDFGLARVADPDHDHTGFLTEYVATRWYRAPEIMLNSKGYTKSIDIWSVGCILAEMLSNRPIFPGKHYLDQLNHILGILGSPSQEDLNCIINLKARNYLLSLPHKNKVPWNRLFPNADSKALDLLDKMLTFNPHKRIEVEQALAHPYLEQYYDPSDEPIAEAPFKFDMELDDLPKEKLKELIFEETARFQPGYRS

Work on `Cc1ncc(-c2n[nH]c3ccc(N4CC[C@]5(CCN(CC(=O)N6CC=C(c7ccc(-c8ncn(C)n8)cc7)CC6)C5)C4=O)nc23)s1` yielded an IC50 of under 50 nM.
